In one data set the target is T1, HMGB2 (Homo sapiens, UniProt P26583).
T1 sequence (P26583 1-209): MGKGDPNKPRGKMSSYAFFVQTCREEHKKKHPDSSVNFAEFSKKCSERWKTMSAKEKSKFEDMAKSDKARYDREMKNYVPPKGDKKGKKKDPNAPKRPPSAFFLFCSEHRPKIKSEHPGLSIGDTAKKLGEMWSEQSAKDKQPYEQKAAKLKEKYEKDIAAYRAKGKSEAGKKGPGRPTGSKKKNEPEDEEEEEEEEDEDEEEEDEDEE
The data set is described as follows: Co-immunoprecipitation of acetylated / phosphorylated HMGB2 in LX-2 cells. The data set is classed as cell-based. Further details: Total protein lysates were prepared from livers and cells in lysis buffer; endogenous in cells; host or cells: LX-2. The conditions noted are these: CCl4 and ICM for 24 hours (FIG. 5D). As for the experimental part:
Co-immunoprecipitation experiments: LX-2 cells were transfected with a vector expressing HA-CBP with X-treineGENE™ transfection reagent (Sigma). 24 hours later, cells were treated with CCl4 and ICM for 24 hours. Cells then washed 2 times with cold phosphate buffered saline (PBS), lysed in buffer (50 mM Tris HCl, pH 7.4, 150 mM NaCl, 1 mM EDTA, and 1% TRITON X-1.00, and protease inhibitor). Protein extracts were incubated with anti-phosphoserin antibody or anti-acetylated lysin antibody (Cell signaling technology) overnight at 4° C. Protein A/G beads were added to the supernatants and incubated for 4 hours at 4° C. The beads were washed five times in NP-40 lysis buffer. Immune complexes were eluted by SDS—sample buffer, resolved on 10% SDS-PAGE and proceeded for immunoblotting with the indicated antibody.

For a further data set, the system named is TIC cells. Description: TIC cell proliferation (micrograph). The conditions noted are these: 5 μM ICM versus DMSO (FIG. 14E). In kind it is cell-based. As for the experimental part:
(§1) Cell culture, Cell transfection:HEK293T, Hela, Hep3B and MHCC97H cells were cultured and transfected using X-tremeGENE™ HP DNA transfection reagent (Roche) as described previously. CGR8 ES cells were cultured on 0.1% gelatin coated tissue-culture dish in knockout DMEM medium containing 15% ES qualified-Fetal Bovine Serum, 2 mM L-glutamin, 0.1 mM NEAA, 0.1 mM β-mercaptoethanol, 50 μg/ml penicillin-streptomycin and 10 ng/ml Leukemia inhibitory factor (LIF). TIC cells were cultured in DMEM-F12 medium containing Embryomax nucleotides, 2 mM L-glutamin, 0.1 mM NEAA, 20 ng/ml mouse EGF, 50 μg/ml penicillin-streptomycin and […].
(§2) FIG. 14A is Left, Western blot of HMGB2 and SOX2 protein in HEK293T cells transfected with 0.5 μg […] expression plasmid and 0, 1 or 2 μg Flag-HMGB2 expression plasmid. Right, Western blot of HMGB2 and OCT4 protein in HEK293T cells transfected with 0.5 μg HA-OCT4 expression plasmid and 0, 1 or 2 μg Flag-HMGB2 expression plasmid. […] CGR8 cells were lysed, co-immunoprecipitated with OCT4 antibody, followed by Western blot with HMGB2 or OCT4 antibodies. FIG. 14 C is a luciferase reporter assay. HepG2 cells were infected with AAV8-GFP or AAV8-HMGB2 24 hrs before being transfected with 6*OS luciferase reporter and OCT4, SOX2 expression plasmids alone or in combination.

The next data set deals with MMP and Rho signaling. The data set is described as follows: Western blot of MMP and Rho signaling in TIC cells. The conditions noted are these: TIC cells (FIG. 7E). In kind it is cell-based. As for the experimental part:
Western Blotting: Total protein lysates were prepared from livers and cells in lysis buffer containing 50 mM Tris, pH 8.0, 1% Nonidet™ P-40, 150 mM NaCl, 0.5% sodium deoxycholate, 0.1% SDS with protease inhibitors (Thermo Fisher Scientific) and subjected to immunoblotting. Nuclear and cytoplasmic subcellular fractions were prepared using NE-PER nuclear and cytoplasmic extraction reagents (Pierce) according to the manufacturer's instructions. The blot was incubated with a primary antibody, followed by a secondary antibody conjugated to horseradish peroxidase. ECL kit (Pierce) was used to detect the reactivity. The following antibodies were obtained from Cell Signaling Technology: HMGB2, HMGB1, AKT, p-AKT, mTOR, p-mTOR, ERK1/2, pERK1/2, Raptor, Rictor, p53, p21, p-Bad, Smad4, p-Smad2/3, Lamin A/C, a-SMA, MMP2, MMP9, TIMP1, RhoA, Rho-GTP, Cdc42, Rac1/2/3. Anti-HA antibody and anti-beta actin antibody were purchased from Sigma and Santa Cruz Biotechnology, respectively.
Cell Lines The LX-2 human stellate cell line was maintained in Dulbecco's Modified Eagle's Medium (DMEM) supplemented with 2% fetal bovine serum (FBS), 100 IU/ml penicillin, and 100 μg/ml streptomycin. Human hepatocellular carcinoma (HCC) MHCC97H cells were maintained in DMEM supplemented with 10% FBS, 100 IU/ml penicillin, and 100 μg/ml streptomycin, 1 mM HEPES, 1 mM sodium pyruvate, 2 mM L-glutamine. Tumor-initiating (TIC) cells were obtained from Dr. Hidekazu Tsukamoto at University of Southern California and were maintained in 1:1 DMEM:F12 supplement with 100 U/ml penicillin and 100 μg/ml streptomycin, 2 mM glutamine, 20 ng/ml mouse EGF, 10 nM dexamethasone, 1× embryomax nucleotides. All the cells were maintained at 37° C. humidified atmosphere with 5% CO2. TIC cells were infected with Hmgb2 shRNA lentivirus for 48 hr, and treated with 500 ng/ml puromycin for 2 weeks. The stable cells were used for migration and invasion assay, as well as western blot.
(In general: A western blot detects proteins with antibodies after separation by electrophoresis.)

For the next data set, the system named is CGR8 ES cells. The data set is described as follows: CGR8 ES cell differentiation and EB formation. The data set is classed as cell-based, mouse. As for the experimental part: as §1
ES cells EB formation and TICs spheroid assay: CGR8 ES cells were trypsinized into single cells and cultured in ES medium devoid of LIF in hanging drops (900 cells per EB) for 2 d and transferred to ultralow attachment plate for a further 2 d suspension culture. Then, EBs were plated onto gelatin coated tissue-culture plate for further 7 d spontaneously differentiation.
FIGS. 10A-C show the establishment of CGR8 cell culture and differentiation. […] Undifferentiated feeder-free CGR8 ES cells were maintained on 0.1% gelatin coated 6-cm tissue-culture dish in ES medium containing 10 ng/ml Leukemia inhibitory factor (LIF). For EB formation, CGR8 ES cells were trypsinized into single cells and cultured in ES medium devoid of LIF in hanging drops (900 cells per EB) for 2 d and in suspension culture for a further 2 d. Then, EBs were transferred onto gelatin coated tissue-culture plate for further spontaneously differentiation. ES withdraw LIF 2d, CGR8 ES cells were cultured in ES medium devoid of LIF for 2 d.
as §2

Consider `CC1(C)Oc2cc(O)ccc2C2C1=CCn1c(=O)n(-c3ccccc3)c(=O)n12` (stereo not shown) [ICM, inflachromene], for which, at HMGB2, the “HMGB2 phosphorylation by CCl4” value is listed as “decreases”. On HMGB2 (HA-CBP), the “HMGB2 acetylation by CBP/CCl4” value is “decreases”. Moreover, the TIC cell proliferation entry in the data set on TIC cells is “decreases TIC cell proliferation”. Further, in the data set on MMP and Rho signaling, the MMP signaling entry was “decreased” and the Rho signaling entry is reported as “decreased”. In the data set with CGR8 ES cells (5 μM ICM versus DMSO (FIG. 14E)), the CGR8 differentiation result is “induces CGR8 differentiation”.

For “shHMGB2: small hairpin RNA against HMGB2 (SEQ ID NO: 8), delivered by AAV or lentivirus (CCGGGCTCAACATTAGCTTCAGTATCTCGAGATACTGAAGCTAATGTTGAGCTTTTTG)”, in the data set with MMP and Rho signaling, the MMP signaling result was “decreased” and the Rho signaling result is on record as “decreased”. Also, in the data set on CGR8 ES cells (EB formation, AAV8 infection versus AAV8-Null (FIG. 14D)), the “spheroid formation of CGR8 cells” value was “decreases spheroid formation”. For the same compound, the CGR8 differentiation result in the data set with CGR8 ES cells (knockdown of HMGB2 (summary)) is listed as “promotes CGR8 differentiation”.

The record behind these values is US20180320177A1, “COMPOSITIONS AND METHODS FOR THE TREATMENT OF LIVER FIBROSIS” (UNIVERSITY OF CONNECTICUT, priority 2015, published 2018).
